Laboratory results taken from patent US20030130203A1, “Medicament for combating respiratory depression” (priority 2000, published 2003).

System: awake male Sprague Dawley rats
Assay: Measurement of respiratory rate on the awake rat
Assay type: in vivo
Conditions: i.v., measured immediately and up to 15 min
Method: Measurement of Respiratory Rate on the Awake Rat
To study the respiratory rate, awake male Sprague Dawley rats (Janvier, France) weighing 190 to 315 g were immobilized in Plexiglas tubes. For intravenous administration of the medicament solutions, the rats were each provided with a catheter in the caudal vein. The respiratory rate of the rats was measured via a water-filled balloon catheter located laterally between the rat and the Plexiglas tube. The balloon catheter was connected to a pressure sensor and a high-speed chart recorder (Gould, Dietzenbach).
After an equilibration period of 30 minutes, a baseline value for the respiratory rate was determined. The appropriate active ingredient solution was then administered intravenously and the respiratory rate was measured immediately and after 1, 2, 5, 10 and 15 minutes. Each rat received a single administration per day.

SMILES | respiratory rate (10 mg/kg morphine only in 0.9% saline) | respiratory rate (0.215 mg/kg montirelin together with 10 mg/kg morphine in 0.9% saline)
CN1CC[C@]23c4c5ccc(O)c4O[C@H]2[C@@H](O)C=C[C@H]3[C@H]1C5 [Comparative Example 1, morphine] | marked decrease in respiratory rate | –
C[C@H]1SC[C@@H](C(=O)N[C@H](Cc2c[nH]cn2)C(=O)N2CCC[C@H]2C(N)=O)NC1=O [Example 1, montirelin] | – | no decrease in respiratory rate
